Assay results from ChEMBL document CHEMBL5303769, “Data for DCP probe JNJ-42226314” (2023).
Each block holds one compound with its values, some of them ahead of it.

Columns and labels:
[1] = molecular target: T1, Muscarinic acetylcholine receptor M3 (Homo sapiens, UniProt P20309); test: GPCRScan assay: inhibition of M3; design: radioligand conc. used [nm] 0.3 – 1.0, parental cells stable CHO
[2] = molecular target: Tryptase (Homo sapiens) (UniProt Q9BZJ3+Q15661+Q9NRR2); test: Tryptase Serine protease panel; conditions: Compound concentration 10.0 uM
[3] = molecular target: Neutrophil elastase (Homo sapiens) (UniProt P08246); test: Elastase Serine protease panel; conditions: Compound concentration 10.0 uM
[4] = molecular target: Plasminogen (Homo sapiens) (UniProt P00747); test: Plasmin Serine protease panel; conditions: Compound concentration 10.0 uM
[5] = molecular target: Chymotrypsin (Homo sapiens) (UniProt Q99895+P17538+P40313+Q6GPI1); test: Chymotrypsin Serine protease panel; assay type: protein assay; conditions: Compound concentration 10.0 uM
[6] = molecular target: Tissue-type plasminogen activator (Homo sapiens) (UniProt P00750); test: TPA Serine protease panel; conditions: Compound concentration 10.0 uM
[7] = molecular target: Kallikrein-1 (Homo sapiens) (UniProt P06870); test: Kallikrein Serine protease panel; conditions: Compound concentration 10.0 uM
[8] = molecular target: Prothrombin (Homo sapiens) (UniProt P00734); test: Thrombin Serine protease panel; conditions: Compound concentration 10.0 uM
[9] = molecular target: Chymase (Homo sapiens) (UniProt P23946); test: Chymase Serine protease panel; conditions: Compound concentration 10.0 uM
[10] = molecular target: Cathepsin G (Homo sapiens) (UniProt P08311); test: Cathepsin G Serine protease panel; conditions: Compound concentration 10.0 uM
[11] = molecular target: Myeloblastin (Homo sapiens) (UniProt P24158); test: Proteinase 3 Serine protease panel; conditions: Compound concentration 10.0 uM
[12] = molecular target: Coagulation factor VII (Homo sapiens) (UniProt P08709); test: Factor VIIa Serine protease panel; conditions: Compound concentration 10.0 uM
[13] = molecular target: Urokinase-type plasminogen activator (Homo sapiens) (UniProt P00749); test: Urokinase Serine protease panel; conditions: Compound concentration 10.0 uM
[14] = organism: Homo sapiens; test: Streptokinase Serine protease panel; conditions: Compound concentration 10.0 uM
[15] = molecular target: Serine protease 1 (Homo sapiens) (UniProt P07477); test: Trypsin Serine protease panel; conditions: Compound concentration 10.0 uM
[16] = molecular target: Coagulation factor X (Homo sapiens) (UniProt P00742); test: Factor Xa Serine protease panel; conditions: concentration not given here
[17] = molecular target: Monoacylglycerol lipase ABHD6 (Homo sapiens, UniProt Q9BV23); test: hABHD6 Endocannabinoid related and lipase panel
[18] = molecular target: Lysophosphatidylserine lipase ABHD12 (Homo sapiens, UniProt Q8N2K0); test: hABHD12 Endocannabinoid related and lipase panel
[19] = molecular target: Endothelial lipase (Homo sapiens, UniProt Q9Y5X9); test: Endothelial lipase Endocannabinoid related and lipase panel
[20] = molecular target: Hepatic triacylglycerol lipase (Homo sapiens, UniProt P11150); test: Hepatic lipase Endocannabinoid related and lipase panel
[21] = molecular target: Lipoprotein lipase (Homo sapiens, UniProt P06858); test: Lipoprotein lipase Endocannabinoid related and lipase panel
[22] = molecular target: 5-hydroxytryptamine receptor 1A (Homo sapiens) (UniProt P08908); conditions: Compound concentration 10.0 uM
[23] = molecular target: 5-hydroxytryptamine receptor 1B (Homo sapiens) (UniProt P28222); conditions: Compound concentration 10.0 uM
5-hydroxytryptamine receptor 1B (Homo sapiens), sequence (P28222 whole entry): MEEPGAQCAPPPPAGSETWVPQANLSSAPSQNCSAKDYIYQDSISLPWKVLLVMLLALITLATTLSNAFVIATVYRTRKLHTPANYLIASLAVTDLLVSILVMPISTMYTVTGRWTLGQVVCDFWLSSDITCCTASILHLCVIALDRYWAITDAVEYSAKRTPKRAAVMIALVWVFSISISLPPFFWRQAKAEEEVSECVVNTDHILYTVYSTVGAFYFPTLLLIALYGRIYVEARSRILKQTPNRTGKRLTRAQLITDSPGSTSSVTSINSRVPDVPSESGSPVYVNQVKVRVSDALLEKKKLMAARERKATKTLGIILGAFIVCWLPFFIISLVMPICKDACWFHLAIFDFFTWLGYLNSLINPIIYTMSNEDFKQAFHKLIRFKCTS

[24] = molecular target: 5-hydroxytryptamine receptor 1D (Homo sapiens) (UniProt P28221); conditions: Compound concentration 10.0 uM
[25] = molecular target: 5-hydroxytryptamine receptor 2A (Homo sapiens) (UniProt P28223); conditions: Compound concentration 10.0 uM
[26] = molecular target: 5-hydroxytryptamine receptor 2B (Homo sapiens) (UniProt P41595); conditions: Compound concentration 10.0 uM
[27] = molecular target: 5-hydroxytryptamine receptor 3A (Homo sapiens) (UniProt P46098); conditions: Compound concentration 10.0 uM
5-hydroxytryptamine receptor 3A (Homo sapiens), sequence (P46098 whole entry): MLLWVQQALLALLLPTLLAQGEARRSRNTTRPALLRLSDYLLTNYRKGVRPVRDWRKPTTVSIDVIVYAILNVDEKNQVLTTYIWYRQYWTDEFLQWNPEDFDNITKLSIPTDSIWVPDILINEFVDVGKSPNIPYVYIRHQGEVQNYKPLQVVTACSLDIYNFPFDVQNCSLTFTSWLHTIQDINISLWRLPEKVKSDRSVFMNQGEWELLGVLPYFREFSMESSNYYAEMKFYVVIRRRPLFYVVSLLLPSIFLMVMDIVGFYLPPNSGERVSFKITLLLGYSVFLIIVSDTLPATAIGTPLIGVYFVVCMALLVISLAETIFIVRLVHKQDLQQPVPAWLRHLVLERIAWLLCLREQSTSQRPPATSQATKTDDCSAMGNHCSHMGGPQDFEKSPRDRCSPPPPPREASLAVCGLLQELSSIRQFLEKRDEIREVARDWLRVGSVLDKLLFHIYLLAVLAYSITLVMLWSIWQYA

[28] = molecular target: 5-hydroxytryptamine receptor 5A (Homo sapiens) (UniProt P47898); conditions: Compound concentration 10.0 uM
[29] = molecular target: 5-hydroxytryptamine receptor 6 (Homo sapiens) (UniProt P50406); conditions: Compound concentration 10.0 uM
[30] = molecular target: 5-hydroxytryptamine receptor 7 (Homo sapiens) (UniProt P34969); conditions: Compound concentration 10.0 uM
5-hydroxytryptamine receptor 7 (Homo sapiens), sequence (P34969 whole entry): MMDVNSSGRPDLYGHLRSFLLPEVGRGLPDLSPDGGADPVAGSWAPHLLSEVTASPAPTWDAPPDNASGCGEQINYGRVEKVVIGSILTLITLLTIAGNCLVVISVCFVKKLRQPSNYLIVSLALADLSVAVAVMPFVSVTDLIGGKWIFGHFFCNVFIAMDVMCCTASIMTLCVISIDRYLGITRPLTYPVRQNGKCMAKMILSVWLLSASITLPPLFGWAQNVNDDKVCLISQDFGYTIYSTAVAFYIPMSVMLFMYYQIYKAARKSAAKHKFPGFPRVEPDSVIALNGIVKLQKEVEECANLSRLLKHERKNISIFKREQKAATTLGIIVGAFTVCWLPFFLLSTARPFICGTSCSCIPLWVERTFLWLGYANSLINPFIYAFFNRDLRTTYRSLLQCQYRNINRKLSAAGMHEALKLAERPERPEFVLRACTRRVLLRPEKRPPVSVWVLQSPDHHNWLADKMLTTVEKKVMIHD

[31] = molecular target: D(2) dopamine receptor (Homo sapiens) (UniProt P14416); conditions: Compound concentration 10.0 uM
[32] = molecular target: D(3) dopamine receptor (Homo sapiens) (UniProt P35462); conditions: Compound concentration 10.0 uM
[33] = molecular target: D(4) dopamine receptor (Homo sapiens) (UniProt P21917); conditions: Compound concentration 10.0 uM
[34] = molecular target: T2, D(1B) dopamine receptor (Homo sapiens, UniProt P21918); conditions: Compound concentration 10.0 uM
T2 sequence (P21918 whole entry): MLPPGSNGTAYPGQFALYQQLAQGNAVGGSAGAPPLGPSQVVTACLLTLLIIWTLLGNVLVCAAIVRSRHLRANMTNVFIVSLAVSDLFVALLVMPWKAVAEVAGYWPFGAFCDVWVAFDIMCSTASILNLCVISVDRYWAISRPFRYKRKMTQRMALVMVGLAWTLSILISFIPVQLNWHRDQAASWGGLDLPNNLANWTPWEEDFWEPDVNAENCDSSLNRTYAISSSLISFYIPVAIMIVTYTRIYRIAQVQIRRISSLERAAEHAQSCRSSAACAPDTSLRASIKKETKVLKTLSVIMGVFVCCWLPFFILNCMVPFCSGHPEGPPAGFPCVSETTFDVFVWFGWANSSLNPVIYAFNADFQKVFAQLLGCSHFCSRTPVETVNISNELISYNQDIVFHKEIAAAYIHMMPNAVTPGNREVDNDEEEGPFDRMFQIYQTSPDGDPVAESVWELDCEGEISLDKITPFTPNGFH

[35] = molecular target: Sodium-dependent serotonin transporter (Homo sapiens) (UniProt P31645); conditions: Compound concentration 10.0 uM
[36] = molecular target: Sodium-dependent noradrenaline transporter (Homo sapiens) (UniProt P23975); conditions: Compound concentration 10.0 uM
Sodium-dependent noradrenaline transporter (Homo sapiens), sequence (P23975 whole entry): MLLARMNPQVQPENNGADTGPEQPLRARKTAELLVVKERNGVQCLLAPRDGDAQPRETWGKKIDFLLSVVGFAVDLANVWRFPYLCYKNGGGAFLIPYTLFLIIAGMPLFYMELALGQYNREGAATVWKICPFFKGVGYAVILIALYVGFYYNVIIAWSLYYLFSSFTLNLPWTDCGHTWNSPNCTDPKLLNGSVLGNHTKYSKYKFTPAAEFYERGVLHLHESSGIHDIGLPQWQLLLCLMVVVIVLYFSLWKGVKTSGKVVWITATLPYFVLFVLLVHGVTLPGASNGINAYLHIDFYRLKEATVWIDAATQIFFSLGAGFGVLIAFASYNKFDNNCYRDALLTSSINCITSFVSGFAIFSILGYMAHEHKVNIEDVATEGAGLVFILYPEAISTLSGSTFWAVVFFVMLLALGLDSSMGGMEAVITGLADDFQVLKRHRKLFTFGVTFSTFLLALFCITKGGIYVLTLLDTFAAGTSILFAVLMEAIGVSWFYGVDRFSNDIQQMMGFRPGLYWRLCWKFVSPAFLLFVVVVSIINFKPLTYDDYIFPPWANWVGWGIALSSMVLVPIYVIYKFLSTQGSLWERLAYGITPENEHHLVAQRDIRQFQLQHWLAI

[37] = molecular target: Sodium-dependent dopamine transporter (Homo sapiens) (UniProt Q01959); conditions: Compound concentration 10.0 uM
[38] = molecular target: Mu-type opioid receptor (Homo sapiens) (UniProt P35372); conditions: Compound concentration 10.0 uM
[39] = molecular target: Delta-type opioid receptor (Homo sapiens) (UniProt P41143); conditions: Compound concentration 10.0 uM
[40] = molecular target: Kappa-type opioid receptor (Homo sapiens) (UniProt P41145); conditions: Compound concentration 10.0 uM
[41] = molecular target: Histamine H1 receptor (Homo sapiens) (UniProt P35367); conditions: Compound concentration 10.0 uM
[42] = molecular target: Histamine H2 receptor (Homo sapiens) (UniProt P25021); conditions: Compound concentration 10.0 uM
Histamine H2 receptor (Homo sapiens), sequence (P25021 whole entry): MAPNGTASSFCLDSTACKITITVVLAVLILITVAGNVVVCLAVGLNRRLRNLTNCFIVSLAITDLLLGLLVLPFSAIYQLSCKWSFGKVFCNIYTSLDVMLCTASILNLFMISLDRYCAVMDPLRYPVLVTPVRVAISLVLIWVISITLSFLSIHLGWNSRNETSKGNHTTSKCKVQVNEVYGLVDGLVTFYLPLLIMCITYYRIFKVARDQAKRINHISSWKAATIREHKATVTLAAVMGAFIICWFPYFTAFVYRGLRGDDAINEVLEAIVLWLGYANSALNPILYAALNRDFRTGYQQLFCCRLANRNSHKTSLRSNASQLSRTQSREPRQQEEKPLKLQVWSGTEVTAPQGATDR

[43] = molecular target: Histamine H3 receptor (Homo sapiens) (UniProt Q9Y5N1); conditions: Compound concentration 10.0 uM
Histamine H3 receptor (Homo sapiens), sequence (Q9Y5N1 whole entry): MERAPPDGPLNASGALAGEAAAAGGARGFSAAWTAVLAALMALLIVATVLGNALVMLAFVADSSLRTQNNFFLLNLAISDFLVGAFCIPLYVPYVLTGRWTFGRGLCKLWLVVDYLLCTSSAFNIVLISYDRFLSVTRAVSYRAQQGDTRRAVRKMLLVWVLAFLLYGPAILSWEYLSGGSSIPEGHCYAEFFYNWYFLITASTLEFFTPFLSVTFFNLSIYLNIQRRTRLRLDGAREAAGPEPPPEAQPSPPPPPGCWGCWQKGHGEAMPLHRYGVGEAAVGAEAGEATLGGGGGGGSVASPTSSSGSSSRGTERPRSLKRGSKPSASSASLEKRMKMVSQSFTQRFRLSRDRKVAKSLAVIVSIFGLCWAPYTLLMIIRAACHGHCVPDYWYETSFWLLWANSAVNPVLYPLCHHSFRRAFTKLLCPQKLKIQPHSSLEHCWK

[44] = molecular target: Histamine H4 receptor (Homo sapiens) (UniProt Q9H3N8); conditions: Compound concentration 10.0 uM
[45] = molecular target: Alpha-1A adrenergic receptor (Homo sapiens) (UniProt P35348); conditions: Compound concentration 10.0 uM
[46] = molecular target: Alpha-1B adrenergic receptor (Homo sapiens) (UniProt P35368); conditions: Compound concentration 10.0 uM
[47] = molecular target: Alpha-2A adrenergic receptor (Homo sapiens) (UniProt P08913); conditions: Compound concentration 10.0 uM
[48] = molecular target: Alpha-2B adrenergic receptor (Homo sapiens) (UniProt P18089); conditions: Compound concentration 10.0 uM
Alpha-2B adrenergic receptor (Homo sapiens), sequence (P18089 whole entry): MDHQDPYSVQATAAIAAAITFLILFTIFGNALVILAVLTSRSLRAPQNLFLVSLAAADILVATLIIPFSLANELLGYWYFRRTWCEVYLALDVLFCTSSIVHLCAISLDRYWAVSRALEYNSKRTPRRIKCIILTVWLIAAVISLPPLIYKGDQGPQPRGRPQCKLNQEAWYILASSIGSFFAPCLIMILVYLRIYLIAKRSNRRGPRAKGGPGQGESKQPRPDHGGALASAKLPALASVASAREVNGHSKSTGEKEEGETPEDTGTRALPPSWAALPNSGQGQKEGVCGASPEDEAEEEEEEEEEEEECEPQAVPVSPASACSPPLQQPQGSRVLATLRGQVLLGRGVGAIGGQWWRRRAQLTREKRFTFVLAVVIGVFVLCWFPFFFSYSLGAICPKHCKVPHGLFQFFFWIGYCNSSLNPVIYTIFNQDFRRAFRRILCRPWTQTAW

[49] = molecular target: Alpha-2C adrenergic receptor (Homo sapiens) (UniProt P18825); conditions: Compound concentration 10.0 uM
Alpha-2C adrenergic receptor (Homo sapiens), sequence (P18825 whole entry): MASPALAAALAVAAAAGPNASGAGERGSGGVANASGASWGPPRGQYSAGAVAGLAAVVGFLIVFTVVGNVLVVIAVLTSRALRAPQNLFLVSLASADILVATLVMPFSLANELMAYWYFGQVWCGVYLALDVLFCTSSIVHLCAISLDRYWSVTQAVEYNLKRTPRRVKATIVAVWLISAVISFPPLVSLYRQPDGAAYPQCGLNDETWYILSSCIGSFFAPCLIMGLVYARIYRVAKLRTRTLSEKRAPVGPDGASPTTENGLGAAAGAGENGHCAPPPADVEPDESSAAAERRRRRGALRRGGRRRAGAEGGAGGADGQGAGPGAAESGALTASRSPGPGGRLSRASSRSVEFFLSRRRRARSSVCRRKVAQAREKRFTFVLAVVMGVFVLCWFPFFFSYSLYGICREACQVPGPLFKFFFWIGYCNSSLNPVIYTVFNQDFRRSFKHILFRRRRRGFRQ

[50] = molecular target: Beta-1 adrenergic receptor (Homo sapiens) (UniProt P08588); conditions: Compound concentration 10.0 uM
[51] = molecular target: Beta-2 adrenergic receptor (Homo sapiens) (UniProt P07550); conditions: Compound concentration 10.0 uM
[52] = molecular target: Muscarinic acetylcholine receptor M2 (Homo sapiens) (UniProt P08172); conditions: Compound concentration 10.0 uM
[53] = molecular target: T1, Muscarinic acetylcholine receptor M3; conditions: Compound concentration 10.0 uM
[54] = molecular target: Muscarinic acetylcholine receptor M4 (Homo sapiens) (UniProt P08173); conditions: Compound concentration 10.0 uM
[55] = molecular target: Muscarinic acetylcholine receptor M5 (Homo sapiens) (UniProt P08912); conditions: Compound concentration 10.0 uM
[56] = molecular target: Beta-3 adrenergic receptor (Homo sapiens) (UniProt P13945); conditions: Compound concentration 10.0 uM
[57] = organism: Rattus norvegicus; conditions: Compound concentration 10.0 uM
[58] = molecular target: Alpha-1D adrenergic receptor (Homo sapiens) (UniProt P25100); conditions: Compound concentration 10.0 uM
Alpha-1D adrenergic receptor (Homo sapiens), sequence (P25100 whole entry): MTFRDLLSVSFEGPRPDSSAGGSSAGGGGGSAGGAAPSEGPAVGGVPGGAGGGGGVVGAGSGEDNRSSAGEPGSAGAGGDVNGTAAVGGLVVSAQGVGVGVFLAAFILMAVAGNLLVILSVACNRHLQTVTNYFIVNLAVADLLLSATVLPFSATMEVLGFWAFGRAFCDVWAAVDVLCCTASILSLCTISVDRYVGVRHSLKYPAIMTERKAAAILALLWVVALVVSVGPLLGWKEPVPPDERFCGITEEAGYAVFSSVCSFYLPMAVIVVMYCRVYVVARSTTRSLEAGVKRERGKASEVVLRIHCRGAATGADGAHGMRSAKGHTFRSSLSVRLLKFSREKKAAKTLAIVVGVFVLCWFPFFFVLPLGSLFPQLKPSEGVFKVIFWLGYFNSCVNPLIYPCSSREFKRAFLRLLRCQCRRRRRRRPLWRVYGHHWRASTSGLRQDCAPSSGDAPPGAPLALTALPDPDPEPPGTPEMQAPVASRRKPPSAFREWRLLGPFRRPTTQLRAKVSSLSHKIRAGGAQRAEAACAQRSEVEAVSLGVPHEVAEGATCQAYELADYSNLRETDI

[59] = molecular target: Sigma intracellular receptor 2 (Homo sapiens) (UniProt Q5BJF2); conditions: Compound concentration 10.0 uM
[60] = molecular target: Sigma non-opioid intracellular receptor 1 (Homo sapiens) (UniProt Q99720); conditions: Compound concentration 10.0 uM
Sigma non-opioid intracellular receptor 1 (Homo sapiens), sequence (Q99720 whole entry): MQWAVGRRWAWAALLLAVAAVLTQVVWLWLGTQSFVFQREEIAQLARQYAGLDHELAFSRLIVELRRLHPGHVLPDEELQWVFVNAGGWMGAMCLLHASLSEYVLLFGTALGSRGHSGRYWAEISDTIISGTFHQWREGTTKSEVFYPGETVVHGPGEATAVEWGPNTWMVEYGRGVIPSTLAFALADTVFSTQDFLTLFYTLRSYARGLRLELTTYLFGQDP

[61] = molecular target: T2, D(1B) dopamine receptor; test: GPCRScan assay: inhibition of D5; design: radioligand conc. used [nm] 2.0 – 3.0, parental cells HEKT
[62] = molecular target: 5-hydroxytryptamine receptor 2C (Homo sapiens) (UniProt P28335); conditions: Compound concentration 10.0 uM
[63] = molecular target: GABA-A receptor; anion channel (Rattus norvegicus) (UniProt O09028+P15431+P18506+P18508+P19969+P20236+P23574+P23576+P28471+P28473+P30191+P62813+P63079+P63138+Q91ZM7+Q9ES14); conditions: Compound concentration 10.0 uM
[64] = molecular target: Monoacylglycerol lipase (Homo sapiens); test: Fluorometric Assay (Inhibition of 4MU-B cleavage)

Ki [1]: > 10 µM
pKi [1]: < 5
inhibition [2]: 2%
inhibition [3]: 4%
inhibition [4]: 4%
inhibition [5]: -3%
inhibition [6]: 6%
inhibition [7]: 4%
inhibition [8]: -1%
inhibition [9]: 11%
inhibition [10]: 13%
inhibition [11]: 7%
inhibition [12]: -5%
inhibition [13]: 2%
inhibition [14]: 1%
inhibition [15]: -10%
inhibition [16]: 0%
IC50 [17]: > 10 µM
IC50 [18]: > 10 µM
IC50 [19]: > 30 µM
IC50 [20]: > 30 µM
IC50 [21]: > 30 µM
inhibition [22]: 11.6%
inhibition [23]: 6.33%
inhibition [24]: 18.2%
inhibition [25]: 7.06%
inhibition [26]: 8.47%
inhibition [27]: 19.3%
inhibition [28]: 17.7%
inhibition [29]: -9.24%
inhibition [30]: 12.8%
inhibition [31]: -9.71%
inhibition [32]: 1.99%
inhibition [33]: 0.01%
inhibition [34]: -0.29%
inhibition [35]: 8.15%
inhibition [36]: 8.01%
inhibition [37]: 25.2%
inhibition [38]: 14.5%
inhibition [39]: 9.83%
inhibition [40]: 11.1%
inhibition [41]: 4.93%
inhibition [42]: 2.62%
inhibition [43]: 19.4%
inhibition [44]: -8.52%
inhibition [45]: -2.02%
inhibition [46]: -6.82%
inhibition [47]: 14.2%
inhibition [48]: 9.63%
inhibition [49]: 4.03%
inhibition [50]: -2.68%
inhibition [51]: -2.21%
inhibition [52]: -3.14%
inhibition [53]: 54.7%
inhibition [54]: 1.62%
inhibition [55]: -7.3%
inhibition [56]: 0.7%
inhibition [57]: -0.52%
inhibition [58]: 9.02%
inhibition [59]: 27.6%
inhibition [60]: 27.6%
Compound: O=C(c1ccc2c(ccn2-c2ccc(F)cc2)c1)N1CC(N2CCN(C(=O)c3nccs3)CC2)C1

Ki [61]: > 10 µM
pKi [61]: < 5
inhibition [22]: 18.1%
inhibition [23]: 35%
inhibition [24]: 22.7%
inhibition [25]: 8.77%
inhibition [26]: 8.86%
inhibition [62]: 2.58%
inhibition [27]: 9.93%
inhibition [28]: 11.5%
inhibition [29]: 17%
inhibition [30]: 12.4%
inhibition [31]: 8.15%
inhibition [32]: 11.1%
inhibition [33]: 16%
inhibition [35]: 22.3%
inhibition [36]: 3.51%
inhibition [37]: 43.5%
inhibition [38]: 49.1%
inhibition [39]: 39%
inhibition [40]: 24.2%
inhibition [41]: 29.9%
inhibition [42]: 32.4%
inhibition [43]: 41.2%
inhibition [44]: -7.89%
inhibition [45]: -6.9%
inhibition [46]: -7.67%
inhibition [47]: 23.3%
inhibition [48]: 23%
inhibition [49]: 16.6%
inhibition [50]: -6.07%
inhibition [51]: 0.18%
inhibition [52]: -3.68%
inhibition [53]: 48.9%
inhibition [55]: -4.46%
inhibition [56]: 23.6%
inhibition [63]: 36.5%
inhibition [57]: 38%
inhibition [58]: 10.4%
inhibition [59]: 43.6%
inhibition [60]: 37.1%
IC50 [64]: > 10 µM (not active)
Compound: Cc1cc(C(=O)N2CCN(C3CN(C(=O)c4ccc(-c5ccccc5)cc4)C3)CC2)no1
